Measurements: patent US20250161338A1, “Compounds for Anti-aging Intervention” (AGENCY FOR SCIENCE, TECHNOLOGY AND RESEARCH, priority 2022, published 2025)
“Also recorded” adds a separate entry of the source.

How the values were obtained:
[1] = system: wild-type Saccharomyces cerevisiae CEN.PK113-7D yeast strain; assay: Chronological lifespan analysis in yeast (PI, outgrowth, spotting); type: cell-based
Protocol: Yeast strain was recovered from frozen glycerol stock at 30° C. on YPD agar medium. Yeast was left to propagate in SD medium overnight at 30° C. with shaking at 220 revolutions per minute (rpm). Cells propagated overnight were diluted to a starting optical density at 600 nm (OD600) of approximately 0.2 in fresh SD medium to begin the chronological lifespan (CLS) experiments.
CLS experiments were performed in 96-well plates with 200 μL yeast culture. Cellular inoculums were transferred into 96-well plates containing serially double-diluted concentrations (0 to 10 nM) of rapamycin. […] Cells were incubated at 30° C., and the growth was measured at different time points. The growth time point 72 hours was considered as Day 1 for the CLS assay. Cell survival was quantified at various age time points by three different approaches: (i) PI fluorescence-based method, (ii) outgrowth in YPD liquid medium, and (iii) spotting assay (FIG. 1).
Yeast cells (40 μL) from different age time points were transferred into a second 96-well plate (different to the 96-well plate in which the CLS analysis as outlined above was performed). Cells were washed and incubated in 100 μL 1×phosphate buffered saline (PBS) with propidium iodide (PI) (5 μg/mL) for 15 minutes in the dark. Positive and negative control samples were included for quantitative analysis. Positive control (cells boiled at 100° C. for 15 minutes) was PI-stained and processed in the same 96-well plate. Samples without PI-stained cells served as the negative control. After incubation, cells were washed and resuspended in 100 μL PBS. The fluorescence reading of the samples (excitation and emission wavelengths at 535 nm and 617 nm, respectively) and OD600 were measured with a microplate reader (BioTek, Winooski, Vermont, United States). The fluorescence intensity of each sample was normalized with OD600. The background fluorescence signal of the unstained negative sample was subtracted from the normalized fluorescence intensity of each sample. The obtained fluorescence intensity of the positive control (boiled dead cells) was considered 0% cell survival. Cell death was validated by allowing the boiled dead cells to grow in medium. Cell survival at different age time points of samples were calculated by normalizing the fluorescence intensity with positive control sample (boiled cells).
Yeast stationary culture (3 μL) of different age time points were transferred to a second 96-well plate, containing 200 μL YPD medium, and incubated for 24 hours at 30° C. Outgrowth (OD600) of aged cells was measured by the microplate reader. Quantification of cell survival for each age point was determined as relative to Day 1 (considered 100% cell survival). This quantification was performed by using the formula,
Yeast stationary culture (3 μL) of different age time points were spotted onto a YPD agar plate and incubated for 48 hours at 30° C. The outgrowth of aged cells on the YPD agar plate was photographed using the Bio-Rad GelDoc Imaging System (Bio-Rad, Hercules, California, United States).

HEK293 cells = assay: CLS in human cells, PrestoBlue outgrowth assay (HEK293); type: cell-based
Protocol: Human embryonic kidney 293 (HEK293) cells (ATCC, Manassas, Virginia, United States of America), lung epithelial (A549) cells (ATCC, Manassas, Virginia, United States of America) and fibroblast (IMR90) cells (ATCC, Manassas, Virginia, United States of America) were cultured in the standard D10 medium, consisting of high-glucose DMEM (HyClone, Cytiva, Marlborough, Massachusetts, USA) supplemented with 10% Fetal Bovine Serum (FBS) (Gibco™, ThermoFisher Scientific, Waltham, Massachusetts, USA) and 1% Penicillin Streptomycin Solution (Gibco™, ThermoFisher Scientific, Waltham, Massachusetts, USA). All cells were cultured in a humidified incubator with 5% CO2 at 37° C.
The seeding, washing and trypsinization process was performed similarly to that for the crystal violet assay. 80,000 cells were seeded in a 96-well culture plate with or without compound treatment. At different age time points after seeding, floating dead cells were aspirated with exhausted D10 medium, cells were gently washed with 1×PBS to remove D10 medium residue and treated with 0.2 mL of 0.25% trypsin. […] After one day of growth in a 37° C. incubator with 5% CO2, the cell number was assessed with PrestoBlue™ Cell Viability Reagent (Invitrogen™, Waltham, Massachusetts, USA) according to the manufacturer's protocol. […] After incubation in a 37° C. incubator with 5% CO2 for 3 to 4 hours, reading was taken with a BioTek Synergy MX microplate reader (BioTek, Winooski, Vermont, United States) at excitation and emission wavelengths of 560 nm and 590 nm, respectively.
PrestoBlue (PB) is a resazurin-based reagent used to detect cell viability and traces of cytotoxicity in the medium. It produces results that can be detected both colorimetrically and fluorometrically. […] The resazurin component is reduced to form resorufin by live cells, resulting in a visible change from blue colour to red colour in the reagent, at the same time developing fluorescence, which can be easily detected by a microplate reader. […] The PB assay was easy to perform as the reagent is a commercially available as ready-to-use solution.

For `OC[C@H]1O[C@H](CO)[C@@H](O)[C@@H]1O` [2,5-AM, 2,5-anhydro-D-mannitol], the “effect on yeast CLS” value ([1]; 0 to 8 mM in SD medium, up to day 21) was “extended the CLS in a concentration-dependent manner; also recorded: extended the lifespan even at the late stage of chronological aging”, the “survival of aged cells” value ([1]; 8 mM, Day 21, without compound less than 10%) was “approximately 65%” and the “effect on yeast CLS” value ([1]; very low concentrations (2 mM)) was “increased CLS”. The “more viable cells compared to the untreated group” value (HEK293 cells; 2.5 mM, HEK293) was 76.31%, the “more surviving cells relative to the untreated group” value (HEK293 cells; 5 mM, HEK293) was 123.7% and the “CLS of HEK293 cells by outgrowth method” value (HEK293 cells; different concentrations, Day 4 normalized to Day 1 (FIG. 19)) was “Trends of lifespan extension”.
